ChEMBL document CHEMBL5649166, “RIP3 induces apoptosis independent of pronecrotic kinase activity” (Mol Cell, 2014)

What was measured:
[1] = target: Mitogen-activated protein kinase kinase kinase 11 (Homo sapiens) (UniProt Q16584); assay: Inhibition of human MLK3/MAP3K11 using myelin basic protein as substrate at 1 uM in presence of 32P-ATP by Hotspot assay relative to control; values are per cent of control
[2] = target: Serine/threonine-protein kinase OSR1 (Homo sapiens) (UniProt O95747); assay: Inhibition of human OSR1/OXSR1 using RRHYYYDTHTNTYYLRTFGHNTRR as substrate at 1 uM in presence of 32P-ATP by Hotspot assay relative to control; values are per cent of control
Serine/threonine-protein kinase OSR1 (Homo sapiens), sequence (O95747 2-527 limits assumed): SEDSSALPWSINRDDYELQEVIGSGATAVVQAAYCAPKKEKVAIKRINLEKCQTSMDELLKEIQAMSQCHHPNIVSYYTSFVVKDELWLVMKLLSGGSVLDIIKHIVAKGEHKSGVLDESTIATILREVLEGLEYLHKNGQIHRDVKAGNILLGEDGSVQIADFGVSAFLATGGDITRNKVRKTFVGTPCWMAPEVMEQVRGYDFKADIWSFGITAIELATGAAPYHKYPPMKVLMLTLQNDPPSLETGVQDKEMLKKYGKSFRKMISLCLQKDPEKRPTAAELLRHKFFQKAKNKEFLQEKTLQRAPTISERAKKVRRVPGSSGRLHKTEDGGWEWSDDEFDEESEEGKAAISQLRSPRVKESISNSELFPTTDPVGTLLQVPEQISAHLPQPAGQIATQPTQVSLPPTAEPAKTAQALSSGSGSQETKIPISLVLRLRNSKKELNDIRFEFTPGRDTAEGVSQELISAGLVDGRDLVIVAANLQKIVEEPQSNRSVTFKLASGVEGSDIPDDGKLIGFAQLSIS

[3] = target: Ephrin type-A receptor 4 (Homo sapiens) (UniProt P54764); assay: Inhibition of human EPHA4 using poly[Glu:Tyr] (4:1) as substrate at 1 uM in presence of 32P-ATP by Hotspot assay relative to control; values are per cent of control
Ephrin type-A receptor 4 (Homo sapiens), sequence (P54764 whole entry): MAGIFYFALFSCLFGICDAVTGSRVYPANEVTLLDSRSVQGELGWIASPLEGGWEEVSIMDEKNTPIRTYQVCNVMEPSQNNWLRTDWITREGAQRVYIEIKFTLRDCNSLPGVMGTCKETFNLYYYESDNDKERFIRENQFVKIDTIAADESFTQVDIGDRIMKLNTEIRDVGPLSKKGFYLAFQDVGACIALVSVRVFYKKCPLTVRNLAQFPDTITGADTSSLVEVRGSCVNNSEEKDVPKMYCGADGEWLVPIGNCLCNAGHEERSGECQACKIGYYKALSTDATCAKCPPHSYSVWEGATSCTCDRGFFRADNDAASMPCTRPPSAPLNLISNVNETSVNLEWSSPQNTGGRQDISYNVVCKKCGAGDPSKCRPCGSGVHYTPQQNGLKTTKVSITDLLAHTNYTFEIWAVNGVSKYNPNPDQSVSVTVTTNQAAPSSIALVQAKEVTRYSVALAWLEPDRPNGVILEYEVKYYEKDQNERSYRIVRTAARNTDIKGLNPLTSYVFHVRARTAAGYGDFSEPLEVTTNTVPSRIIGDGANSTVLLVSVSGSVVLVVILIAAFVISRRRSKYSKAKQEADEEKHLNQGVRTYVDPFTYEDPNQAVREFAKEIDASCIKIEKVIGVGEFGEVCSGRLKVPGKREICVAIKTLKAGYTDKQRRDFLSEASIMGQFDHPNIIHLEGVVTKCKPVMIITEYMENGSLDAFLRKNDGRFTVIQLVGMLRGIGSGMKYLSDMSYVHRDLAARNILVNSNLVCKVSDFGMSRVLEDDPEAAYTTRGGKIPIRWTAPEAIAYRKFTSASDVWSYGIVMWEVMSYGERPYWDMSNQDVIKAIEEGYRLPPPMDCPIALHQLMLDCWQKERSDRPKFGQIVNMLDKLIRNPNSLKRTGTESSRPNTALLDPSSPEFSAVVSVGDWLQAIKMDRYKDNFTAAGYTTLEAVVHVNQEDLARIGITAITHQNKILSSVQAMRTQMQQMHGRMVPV

[4] = target: T1, Beta-adrenergic receptor kinase 1 (Homo sapiens) (UniProt P25098); assay: Inhibition of human GRK2 using casein as substrate at 1 uM in presence of 32P-ATP by Hotspot assay relative to control; values are per cent of control
T1 sequence (whole entry): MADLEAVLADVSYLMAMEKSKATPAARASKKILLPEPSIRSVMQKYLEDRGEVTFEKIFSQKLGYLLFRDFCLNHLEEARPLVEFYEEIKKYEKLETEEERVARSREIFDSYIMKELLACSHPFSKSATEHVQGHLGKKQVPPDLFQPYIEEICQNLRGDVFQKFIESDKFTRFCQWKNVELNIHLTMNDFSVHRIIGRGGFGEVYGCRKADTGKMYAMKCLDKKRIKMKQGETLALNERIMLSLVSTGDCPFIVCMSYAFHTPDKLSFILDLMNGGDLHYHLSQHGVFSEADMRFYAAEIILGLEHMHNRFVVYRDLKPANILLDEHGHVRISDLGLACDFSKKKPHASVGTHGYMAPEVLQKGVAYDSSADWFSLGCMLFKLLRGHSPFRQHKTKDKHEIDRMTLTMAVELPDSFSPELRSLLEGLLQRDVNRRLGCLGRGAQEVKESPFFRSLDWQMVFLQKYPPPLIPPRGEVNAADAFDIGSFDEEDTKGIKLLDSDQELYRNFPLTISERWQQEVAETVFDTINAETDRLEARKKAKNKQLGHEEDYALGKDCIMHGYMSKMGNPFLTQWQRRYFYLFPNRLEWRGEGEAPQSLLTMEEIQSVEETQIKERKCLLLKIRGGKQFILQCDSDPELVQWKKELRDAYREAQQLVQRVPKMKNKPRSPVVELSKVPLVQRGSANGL

[5] = target: Tyrosine-protein kinase ABL2 (Homo sapiens) (UniProt P42684); assay: Inhibition of human ABL2/ARG using EAIYAAPFAKKK as substrate at 1 uM in presence of 32P-ATP by Hotspot assay relative to control; values are per cent of control
Tyrosine-protein kinase ABL2 (Homo sapiens), sequence (P42684 whole entry): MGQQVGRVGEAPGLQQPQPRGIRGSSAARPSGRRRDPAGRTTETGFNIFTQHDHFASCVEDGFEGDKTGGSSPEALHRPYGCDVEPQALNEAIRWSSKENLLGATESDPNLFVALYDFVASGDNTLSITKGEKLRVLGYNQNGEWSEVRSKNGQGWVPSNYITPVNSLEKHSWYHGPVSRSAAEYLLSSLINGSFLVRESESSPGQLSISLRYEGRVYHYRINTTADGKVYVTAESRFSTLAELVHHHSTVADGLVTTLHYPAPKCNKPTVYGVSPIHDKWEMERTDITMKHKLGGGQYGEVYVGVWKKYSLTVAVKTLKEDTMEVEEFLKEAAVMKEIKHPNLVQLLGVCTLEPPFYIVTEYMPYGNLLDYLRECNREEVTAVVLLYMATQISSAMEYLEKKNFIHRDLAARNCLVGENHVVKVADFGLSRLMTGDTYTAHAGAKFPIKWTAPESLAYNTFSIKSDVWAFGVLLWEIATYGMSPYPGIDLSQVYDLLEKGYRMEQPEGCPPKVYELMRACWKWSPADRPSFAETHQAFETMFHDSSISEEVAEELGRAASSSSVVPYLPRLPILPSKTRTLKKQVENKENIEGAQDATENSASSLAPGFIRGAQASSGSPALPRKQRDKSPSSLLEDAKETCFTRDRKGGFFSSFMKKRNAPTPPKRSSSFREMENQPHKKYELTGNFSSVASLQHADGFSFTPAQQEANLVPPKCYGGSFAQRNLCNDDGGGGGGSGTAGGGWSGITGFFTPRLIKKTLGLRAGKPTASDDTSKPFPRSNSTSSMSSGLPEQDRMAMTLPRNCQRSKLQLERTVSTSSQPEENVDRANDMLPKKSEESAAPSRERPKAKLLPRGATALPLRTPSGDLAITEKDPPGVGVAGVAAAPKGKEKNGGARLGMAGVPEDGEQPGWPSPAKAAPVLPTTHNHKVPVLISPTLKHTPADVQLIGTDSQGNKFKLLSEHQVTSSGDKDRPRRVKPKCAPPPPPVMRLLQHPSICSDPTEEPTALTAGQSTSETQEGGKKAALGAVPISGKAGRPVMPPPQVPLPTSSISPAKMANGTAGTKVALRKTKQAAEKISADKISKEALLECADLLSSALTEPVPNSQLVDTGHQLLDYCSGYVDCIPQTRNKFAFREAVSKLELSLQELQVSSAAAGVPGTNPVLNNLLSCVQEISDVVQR

[6] = target: Insulin receptor-related protein (Homo sapiens) (UniProt P14616); assay: Inhibition of human IRR/INSRR using myelin basic protein as substrate at 1 uM in presence of 32P-ATP by Hotspot assay relative to control; values are per cent of control
[7] = target: Serine/threonine-protein kinase PAK 6 (Homo sapiens) (UniProt Q9NQU5); assay: Inhibition of human PAK6 using RRRLSFAEPG as substrate at 1 uM in presence of 32P-ATP by Hotspot assay relative to control; values are per cent of control
Serine/threonine-protein kinase PAK 6 (Homo sapiens), sequence (Q9NQU5 whole entry, looked up): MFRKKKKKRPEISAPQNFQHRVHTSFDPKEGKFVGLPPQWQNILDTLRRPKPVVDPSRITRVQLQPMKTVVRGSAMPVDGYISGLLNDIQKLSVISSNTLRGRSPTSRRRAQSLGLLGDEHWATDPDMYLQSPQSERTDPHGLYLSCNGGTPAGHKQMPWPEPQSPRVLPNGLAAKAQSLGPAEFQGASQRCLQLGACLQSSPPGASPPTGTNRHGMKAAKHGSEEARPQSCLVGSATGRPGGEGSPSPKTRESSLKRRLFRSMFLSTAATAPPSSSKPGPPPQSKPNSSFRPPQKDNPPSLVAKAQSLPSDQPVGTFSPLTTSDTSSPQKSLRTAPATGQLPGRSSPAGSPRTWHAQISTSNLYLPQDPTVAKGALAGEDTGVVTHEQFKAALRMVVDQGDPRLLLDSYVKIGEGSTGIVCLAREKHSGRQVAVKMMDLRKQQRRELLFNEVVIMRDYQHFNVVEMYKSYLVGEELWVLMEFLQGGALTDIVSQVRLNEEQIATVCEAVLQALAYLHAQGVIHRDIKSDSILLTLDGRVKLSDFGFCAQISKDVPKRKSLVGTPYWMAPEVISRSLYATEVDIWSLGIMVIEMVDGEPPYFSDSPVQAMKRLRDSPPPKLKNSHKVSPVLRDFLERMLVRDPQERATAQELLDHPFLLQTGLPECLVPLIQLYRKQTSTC

[8] = target: Protein kinase C gamma type (Homo sapiens) (UniProt P05129); assay: Inhibition of human PKCg using ERMRPRKRQGSVRRRV as substrate at 1 uM in presence of 32P-ATP by Hotspot assay relative to control; values are per cent of control
[9] = target: T2, Dual specificity tyrosine-phosphorylation-regulated kinase 2 (Homo sapiens) (UniProt Q92630); assay: Inhibition of human DYRK2 using RRRFRPASPLRGPPK as substrate at 1 uM in presence of 32P-ATP by Hotspot assay relative to control; values are per cent of control
T2 sequence (whole entry): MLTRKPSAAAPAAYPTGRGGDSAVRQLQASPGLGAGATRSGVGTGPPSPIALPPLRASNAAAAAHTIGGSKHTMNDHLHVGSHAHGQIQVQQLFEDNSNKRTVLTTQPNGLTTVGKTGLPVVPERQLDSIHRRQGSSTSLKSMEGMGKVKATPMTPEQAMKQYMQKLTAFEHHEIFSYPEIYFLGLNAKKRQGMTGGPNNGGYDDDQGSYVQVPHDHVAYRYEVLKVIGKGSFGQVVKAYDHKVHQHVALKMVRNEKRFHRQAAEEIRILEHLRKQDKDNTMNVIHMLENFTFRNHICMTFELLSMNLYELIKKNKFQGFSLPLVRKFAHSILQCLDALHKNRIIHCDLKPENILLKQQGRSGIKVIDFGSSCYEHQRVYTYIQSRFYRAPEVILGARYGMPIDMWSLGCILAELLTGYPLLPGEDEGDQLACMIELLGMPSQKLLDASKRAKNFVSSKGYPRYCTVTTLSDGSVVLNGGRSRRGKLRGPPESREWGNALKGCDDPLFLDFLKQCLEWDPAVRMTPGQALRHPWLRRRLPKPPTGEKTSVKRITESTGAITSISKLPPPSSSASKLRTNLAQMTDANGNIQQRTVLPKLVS

Mitogen-activated protein kinase kinase kinase 11 (Homo sapiens), sequence (Q16584 whole entry, looked up): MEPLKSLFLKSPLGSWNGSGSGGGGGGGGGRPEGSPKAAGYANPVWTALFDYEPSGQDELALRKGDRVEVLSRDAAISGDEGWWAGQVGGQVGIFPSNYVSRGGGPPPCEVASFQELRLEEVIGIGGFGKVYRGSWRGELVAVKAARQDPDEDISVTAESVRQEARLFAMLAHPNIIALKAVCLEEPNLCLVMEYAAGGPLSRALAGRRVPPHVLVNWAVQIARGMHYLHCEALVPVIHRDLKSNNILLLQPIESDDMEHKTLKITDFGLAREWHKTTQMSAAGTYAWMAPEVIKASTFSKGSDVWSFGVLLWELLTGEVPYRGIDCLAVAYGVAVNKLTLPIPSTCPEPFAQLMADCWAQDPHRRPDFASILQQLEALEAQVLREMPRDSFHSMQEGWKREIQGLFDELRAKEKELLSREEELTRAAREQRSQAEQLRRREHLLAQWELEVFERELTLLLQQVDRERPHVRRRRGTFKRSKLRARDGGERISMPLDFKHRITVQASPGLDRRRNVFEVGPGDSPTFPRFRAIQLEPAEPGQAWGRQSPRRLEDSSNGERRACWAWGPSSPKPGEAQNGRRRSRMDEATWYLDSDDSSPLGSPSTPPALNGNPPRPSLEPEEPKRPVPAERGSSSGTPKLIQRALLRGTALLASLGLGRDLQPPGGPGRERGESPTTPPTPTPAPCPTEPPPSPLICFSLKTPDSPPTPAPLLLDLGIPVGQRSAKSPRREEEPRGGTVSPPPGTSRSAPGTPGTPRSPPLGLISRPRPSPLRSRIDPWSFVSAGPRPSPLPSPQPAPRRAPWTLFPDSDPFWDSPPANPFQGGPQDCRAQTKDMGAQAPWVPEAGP

| Structure (SMILES) | residual activity [1] | residual activity [2] | residual activity [3] | residual activity [4] | residual activity [5] | residual activity [6] | residual activity [7] | residual activity [8] | residual activity [9] |
| --- | --- | --- | --- | --- | --- | --- | --- | --- | --- |
| CNC(=O)c1ccc2c(c1)ncn2-c1ccc(CC(=O)OC(C)(C)C)cc1 | 85.4% | 98.2% | 95.5% | 97.7% | 78.2% | 93.3% | 89.9% | 85.7% | 96.1% |
| Cc1cc(-c2cnc(N)c3c(-c4ccc5scnc5c4)csc23)n(C)n1 | 69.5% | 97.4% | 48.9% | 101% | 7.38% | 86.7% | 106% | 86.6% | 78.5% |
| CC(C)S(=O)(=O)c1ccc2nccc(Nc3ccc4scnc4c3)c2c1 | 81.1% | 97.8% | 70.9% | 101% | 12% | 98.6% | 98.5% | 99.4% | 101% |
